PubChem BioAssay (NCI)
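Following 48 hours of exposure in 96-well plates, responses at five concentrations were used to interpolate endpoints linearly. TGI: total growth inhibition.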

Experiments:
Assay in all cases: NCI tumour cell line growth inhibition, 48 h
A549 NSCLC = system: A549 NSCLC
SN12C renal = system: SN12C renal
MALME-3M melanoma = system: MALME-3M melanoma
IGROV1 ovarian = system: IGROV1 ovarian
OVCAR-4 ovarian = system: OVCAR-4 ovarian
RXF 393 renal = system: RXF 393 renal
EKVX NSCLC = system: EKVX NSCLC
786-0 renal = system: 786-0 renal
KM20L2 colon = system: KM20L2 colon
TK-10 renal = system: TK-10 renal
T-47D breast = system: T-47D breast
A498 renal = system: A498 renal
XF 498 CNS = system: XF 498 CNS
CAKI-1 renal = system: CAKI-1 renal
DMS 273 small cell lung = system: DMS 273 small cell lung
UACC-62 melanoma = system: UACC-62 melanoma
OVCAR-8 ovarian = system: OVCAR-8 ovarian
NCI-H522 lung = system: NCI-H522 lung
ACHN renal = system: ACHN renal
MCF7 breast = system: MCF7 breast
M19-MEL melanoma = system: M19-MEL melanoma
SNB-19 CNS = system: SNB-19 CNS
NCI-H226 lung = system: NCI-H226 lung
K-562 leukemia = system: K-562 leukemia
U251 CNS = system: U251 CNS
HOP-92 NSCLC = system: HOP-92 NSCLC
HOP-62 NSCLC = system: HOP-62 NSCLC
SW-620 colon = system: SW-620 colon
SR leukemia = system: SR leukemia
KM12 colon = system: KM12 colon
UACC-257 melanoma = system: UACC-257 melanoma
SNB-78 CNS = system: SNB-78 CNS
SF-539 CNS = system: SF-539 CNS
OVCAR-3 ovarian = system: OVCAR-3 ovarian
LXFL 529 NSCLC = system: LXFL 529 NSCLC
HOP-18 NSCLC = system: HOP-18 NSCLC
HCC-2998 colon = system: HCC-2998 colon
DMS 114 small cell lung = system: DMS 114 small cell lung
SF-268 CNS = system: SF-268 CNS
OVCAR-5 ovarian = system: OVCAR-5 ovarian
M14 melanoma = system: M14 melanoma
MDA-MB-231 breast = system: MDA-MB-231 breast
NCI-H460 lung = system: NCI-H460 lung
DU-145 prostate = system: DU-145 prostate
CCRF-CEM leukemia = system: CCRF-CEM leukemia
UO-31 renal = system: UO-31 renal
RPMI-8226 leukemia = system: RPMI-8226 leukemia
SF-295 CNS = system: SF-295 CNS
HL-60(TB) leukemia = system: HL-60(TB) leukemia
SK-MEL-2 melanoma = system: SK-MEL-2 melanoma
BT-549 breast = system: BT-549 breast
NCI-H23 lung = system: NCI-H23 lung
COLO 205 colon = system: COLO 205 colon
HCT-116 colon = system: HCT-116 colon
SK-MEL-28 melanoma = system: SK-MEL-28 melanoma
HS 578T breast = system: HS 578T breast
HCT-15 colon = system: HCT-15 colon
SK-MEL-5 melanoma = system: SK-MEL-5 melanoma
MOLT-4 leukemia = system: MOLT-4 leukemia
LOX IMVI melanoma = system: LOX IMVI melanoma
PC-3 prostate = system: PC-3 prostate
SK-OV-3 ovarian = system: SK-OV-3 ovarian
HT29 colon = system: HT29 colon
SNB-75 CNS = system: SNB-75 CNS
DLD-1 colon = system: DLD-1 colon

COc1cc2c(c(OC)c1OC)-c1cccc(=O)cc1C(NC(C)=O)CC2 (stereo not given)
TGI (A549 NSCLC): > 100 µM | TGI (SN12C renal): > 100 µM | TGI (MALME-3M melanoma): > 100 µM | TGI (IGROV1 ovarian): > 100 µM | TGI (OVCAR-4 ovarian): > 100 µM | TGI (RXF 393 renal): 0.952 µM | TGI (EKVX NSCLC): > 100 µM | TGI (786-0 renal): > 63.1 µM | TGI (KM20L2 colon): 1.86 µM | TGI (TK-10 renal): > 100 µM | TGI (T-47D breast): > 100 µM | TGI (A498 renal): 14.7 µM | TGI (XF 498 CNS): 12.3 µM | TGI (CAKI-1 renal): > 100 µM | TGI (DMS 273 small cell lung): > 100 µM | TGI (UACC-62 melanoma): > 100 µM | TGI (OVCAR-8 ovarian): > 16.7 µM | TGI (NCI-H522 lung): 0.203 µM | TGI (ACHN renal): > 100 µM | TGI (MCF7 breast): > 100 µM | TGI (M19-MEL melanoma): > 100 µM | TGI (SNB-19 CNS): > 100 µM | TGI (NCI-H226 lung): 14.8 µM | TGI (K-562 leukemia): > 100 µM | TGI (U251 CNS): > 100 µM | TGI (HOP-92 NSCLC): 4.92 µM | TGI (HOP-62 NSCLC): > 39.6 µM | TGI (SW-620 colon): > 100 µM | TGI (SR leukemia): > 100 µM | TGI (KM12 colon): 1.75 µM | TGI (UACC-257 melanoma): > 100 µM | TGI (SNB-78 CNS): > 100 µM | TGI (SF-539 CNS): 0.229 µM | TGI (OVCAR-3 ovarian): 1.16 µM | TGI (LXFL 529 NSCLC): > 100 µM | TGI (HOP-18 NSCLC): > 100 µM | TGI (HCC-2998 colon): > 13.6 µM | TGI (DMS 114 small cell lung): 0.391 µM | TGI (SF-268 CNS): > 100 µM | TGI (OVCAR-5 ovarian): > 100 µM | TGI (M14 melanoma): > 67.8 µM | TGI (MDA-MB-231 breast): > 100 µM | TGI (NCI-H460 lung): 3.47 µM | TGI (DU-145 prostate): > 100 µM | TGI (CCRF-CEM leukemia): > 100 µM | TGI (UO-31 renal): > 100 µM | TGI (RPMI-8226 leukemia): > 100 µM | TGI (SF-295 CNS): 0.267 µM | TGI (HL-60(TB) leukemia): 0.472 µM | TGI (SK-MEL-2 melanoma): > 24.8 µM | TGI (BT-549 breast): > 100 µM | TGI (NCI-H23 lung): 11.1 µM | TGI (COLO 205 colon): 1.79 µM | TGI (HCT-116 colon): 25.6 µM | TGI (SK-MEL-28 melanoma): > 100 µM | TGI (HS 578T breast): > 100 µM | TGI (HCT-15 colon): > 100 µM | TGI (SK-MEL-5 melanoma): 3.16 µM | TGI (MOLT-4 leukemia): > 100 µM | TGI (LOX IMVI melanoma): > 100 µM | TGI (PC-3 prostate): > 100 µM

Nc1ncnc2c1ncn2C1OC(CSCc2ccc(Cl)cc2)C(O)C1O (stereo not given)
TGI (A549 NSCLC): > 100 µM | TGI (SN12C renal): > 100 µM | TGI (MALME-3M melanoma): > 100 µM | TGI (IGROV1 ovarian): > 100 µM | TGI (OVCAR-4 ovarian): > 100 µM | TGI (RXF 393 renal): 73.8 µM | TGI (EKVX NSCLC): > 100 µM | TGI (786-0 renal): > 100 µM | TGI (KM20L2 colon): > 100 µM | TGI (TK-10 renal): > 100 µM | TGI (A498 renal): 96 µM | TGI (XF 498 CNS): 85.9 µM | TGI (CAKI-1 renal): 54 µM | TGI (SK-OV-3 ovarian): > 100 µM | TGI (DMS 273 small cell lung): 84.7 µM | TGI (UACC-62 melanoma): > 100 µM | TGI (OVCAR-8 ovarian): > 100 µM | TGI (HT29 colon): > 100 µM | TGI (ACHN renal): > 100 µM | TGI (M19-MEL melanoma): > 100 µM | TGI (SNB-19 CNS): > 100 µM | TGI (K-562 leukemia): > 100 µM | TGI (U251 CNS): > 100 µM | TGI (HOP-92 NSCLC): 32.3 µM | TGI (HOP-62 NSCLC): 64.3 µM | TGI (SW-620 colon): > 100 µM | TGI (KM12 colon): 77.4 µM | TGI (UACC-257 melanoma): > 100 µM | TGI (SNB-78 CNS): > 100 µM | TGI (SF-539 CNS): > 100 µM | TGI (OVCAR-3 ovarian): > 100 µM | TGI (LXFL 529 NSCLC): 48.3 µM | TGI (HOP-18 NSCLC): > 100 µM | TGI (HCC-2998 colon): > 100 µM | TGI (DMS 114 small cell lung): 59.7 µM | TGI (SF-268 CNS): > 100 µM | TGI (OVCAR-5 ovarian): > 100 µM | TGI (M14 melanoma): 36.7 µM | TGI (NCI-H460 lung): > 100 µM | TGI (CCRF-CEM leukemia): > 100 µM | TGI (UO-31 renal): 56 µM | TGI (SNB-75 CNS): 58.5 µM | TGI (RPMI-8226 leukemia): 67.3 µM | TGI (SF-295 CNS): > 100 µM | TGI (HL-60(TB) leukemia): 62.2 µM | TGI (SK-MEL-2 melanoma): 68.7 µM | TGI (NCI-H23 lung): 71.5 µM | TGI (COLO 205 colon): > 100 µM | TGI (HCT-116 colon): 61.4 µM | TGI (DLD-1 colon): > 100 µM | TGI (HCT-15 colon): > 100 µM | TGI (SK-MEL-5 melanoma): 90.9 µM | TGI (MOLT-4 leukemia): 46 µM | TGI (LOX IMVI melanoma): > 100 µM
